According to US11096885B2, “Composition for enhancing skin elasticity or improving skin wrinkles comprising ginseng cell lysate” (AMOREPACIFIC CORPORATION, priority 2018, dated 2021):

System: MMP-1
Assay: MMP-1 ELISA assay: inhibition of MMP-1 production in UVB-irradiated human skin fibroblasts
Assay type: cell-based
Settings: HS68 cells; for MMP-1 (%): untreated control = 100, UVB group = 463.00
Experimental: The MMP-1 ELISA assay was performed to confirm the effect of the composition of Example 1 and Comparative Example 1 on the inhibition of MMP-1 production, which is a skin tissue degrading enzyme, in UVB-irradiated human skin fibroblasts.
Specifically, HS68 cells, which are human skin fibroblasts, were seeded in a 48-well plate at a concentration of 2×10^4 cells/well, and then cultured in a DMEM medium (WelGene) containing 10% fetal bovine serum (FBS, WelGene) and 1% penicillin/streptomycin under a condition of 37° C. and 5% CO2. Then, the medium was removed and washed with DPBS (Dulbecco's Phosphate-Buffered Saline). Then, the cells from Example 1 and Comparative Example 1 diluted by concentration (125 ppm, 250 ppm, 500 ppm) in a DMEM medium containing no fetal bovine serum (FBS) and pretreated for 6 hours. Then, the medium was removed and was filled with 100 μl of DPBS, and then was irradiated at UVB 30 mJ/cm^2. The cells from Example 1 and Comparative Example 1 were diluted by concentration (250 ppm, 500 ppm) in a DMEM medium containing no fetal bovine serum (FBS), treated and cultured for 48 hours. After collecting the medium of the cultured cells, the amount of MMP-1 secretion was measured using a human MMP-1 ELISA kit (R&D Systems), and the absorbance was measured at 450 nm using an ELISA reader (Infinite M200Pro, Tecan). The cells attached to the bottom of the plate were washed with DPBS, lysed with 1N NaOH, and the amount of protein was measured using a BCA assay (Pierce® BCA protein assay kit, Thermo Scientific). The amount of MMP-1 secretion per certain protein was corrected and expressed as a percentage (%). As a positive control group, 1 μM and 10 μM of retinoic acid (RA) were used. Statistical significance between samples was used by the student's t-test and was analyzed to be statistically significant when the p-value was 0.05 or less (* P<0.05, ** p<0.01, *** p<0.001).

In the case of CC1=C(/C=C/C(C)=C/C=C/C(C)=C/C(=O)O)C(C)(C)CCC1 [RA, retinoic acid], the “reduction of MMP-1 secretion as compared to the UVB irradiation group” value (UVB 30 mJ/cm^2, 1 μM) is reported as 111.06%, the “MMP-1 (%)” value (UVB 30 mJ/cm^2, 1 μM) is reported as 351.95 ± 22.95% and the “reduction of MMP-1 secretion as compared to the UVB irradiation group” value (UVB 30 mJ/cm^2, 10 μM) is reported as 239.71%. The “MMP-1 (%)” value (UVB 30 mJ/cm^2, 10 μM) was 223.29 ± 114.85%.
